From patent publication US4122184A, “Benzimidazole insecticides” (priority 1977, dated 1978)

What was measured:
Two-spotted Spider Mite = Two-spotted Spider Mite test; assay type: in vivo, Tetranychus urticae (Acarina); conditions: 48 h
Method: The procedure in this test is the same as that in the previous aphid test, except that about 100 two-spotted spider mites from a stock colony raised on squash plants are transferred to a cut squash cotyledon. The mortality is estimated 48 hours after spraying. The same rating scale is used.

House Fly [1] = assay: Housefly (Contact) Test; assay type: in vivo, Musca domestica (Diptera); conditions: 24 h
Method: Rearing cages containing four-day old adult house flies are chilled at 35°-40° F. for about 1 hour. One hundred flies are transferred from the rearing cage to each test cage using a small scoop. The caged flies are kept for 1-2 hours at 70°-80° F. The cages are sprayed in the same manner as described for the milkweed bug with 5 ml. of the test formulation. Two unsprayed cages are held as controls and two cages are sprayed with a 50 ppm DDT formulation as a reference standard. Mortality counts are made 24 hours after spraying. […] The same rating scale is employed as heretofore.

Oriental Cockroach = assay: Oriental Roach Test; assay type: in vivo, Blatta orientalis (Orthoptera); conditions: 24 h
Method: A rearing pan of late instar (3-4 months old) roaches is placed in a cold room for about 1 hour. Ten nymphs are taken from the pan and placed in each cage and the caged insects are kept at 70°-80° F. for 1 hour. The test cages are then sprayed in the manner indicated above in the milkweed bug test using 5 ml. of a formulation containing a specified amount of the insecticide. The test cages are held for 72 hours during which time the cockroaches are neither fed nor watered. Controls consist of 2 unsprayed cages, two cages sprayed with the formulation alone and 2 cages with a formulation containing 1000 ppm of heptachlor. Mortality counts are made 24 hours after spraying by shaking the cages lightly. All cockroaches remaining in the bottom are counted as dead.

Boll Weevil = Boll Weevil Test; assay type: in vivo, Anthonomus grandis (Coleoptera); conditions: 48 h
Source text: The procedure is identical to that employed for the Mexican bean beetle and the Southern armyworm, except that 10 adult boll weevils are placed on cotton leaves that have been dipped into formulations of the test compounds. The same rating scale is used.

Southern Armyworm = Southern Armyworm Test; assay type: in vivo, Prodenia eridania (Lepidoptera); conditions: 500 ppm, 48 h
Method: Ten uniform Southern armyworm larvae about 1-1.5 cm. in length, grown on Henderson lima beans, are placed on excized bean leaves in petri dishes. The bean leaves are obtained and sprayed with the insecticide in the same way as are the snap bean leaves in the Mexican bean beetle test. The reference standards in this instance are leaves sprayed with 5 ml. 100 ppm DDT solution. Mortality counts are made 48 hours after spraying and again moribund larvae are counted as dead. Missing larvae which have probably been eaten are considered alive. The same rating scale is used as in the Mexican bean beetle test.

Milkweed Bug = Milkweed Bug Test; assay type: in vivo, Oncopeltis fasciatus (Hemiptera); conditions: 48 h
Method: Ten adult milkweed bugs are chilled and placed in a test cage. The cages containing the bugs are sprayed with 5 ml. of a test formulation containing a pre-determined amount of the insecticide, using a DeVilbiss atomizer at 10 psi held 33 inches from the top of the cage. After the cage has been allowed to dry, the bugs are fed and watered for 48 hours. A formulation containing 500 ppm of malathion is used as a reference standard and two unsprayed cages are kept as controls. Mortality counts are made 48 hours after spraying. Moribund adults are considered dead. The same rating scale is employed as before.

Mexican Bean Beetle = Mexican Bean Beetle Test; assay type: in vivo, Epilachna varivestis (Coleoptera); conditions: 48 h
Method: Cuttings of four six-day old Bountiful snap bean plants containing two leaves with approximately 5 square inches of leaf surface, are placed in water. The leaves are sprayed to wetting with about 5-10 ml. of a formulation containing a pre-determined level of the test compound. Half of the formulation is sprayed on the top surface and half on the bottom surface of the leaf using a DeVilbiss atomizer at 10 psi held at a distance of about 18 inches from the leaf. After the leaves have dried, they are cut from the stem and placed separately in petri dishes. Ten third instar, nonmolting Mexican bean beetle larvae grown on Bountiful snap beans are placed on each leaf. Controls consist of two leaves sprayed with 5 ml. of a 500 ppm malathion formulation (reference standard), two leaves sprayed with the formulation without the active ingredient and two leaves are held as untreated controls. After 48 hours, a mortality count is made and the amount of feeding noted. Moribund larvae are counted as dead.

House Fly [2] = assay: Housefly (Stomach) Test; assay type: in vivo, Musca domestica (Diptera); conditions: 24 h
Method: Ten chilled house flies are taken from the rearing cage and placed in a covered petri dish. Sugar cubes treated with 0.2 ml. of a formulation containing a specified level of the insecticide are placed in the petri dish one hour after the flies have been removed from the chill room. Controls consist of sugar cubes treated with 0.2 ml. of deionized water and cubes treated with 0.2 ml. of a formulation containing 500 ppm of malathion. Mortality counts are made 24 hours later. The same rating scale is used as before.

Melon Aphid = Melon Aphid Test; assay type: in vivo, Aphis gossypii (Hemiptera); conditions: 250 ppm, 24 h
Source text: Four blue hubbard squash seeds are planted per container in vermiculite and the containers watered from the bottom. After 6 days, the two weakest plants are cut off and one cotyledon and the primary leaves are removed from each of the two remaining plants. The remaining cotyledon is infested with 100 melon aphids from a stock colony by pinning the cotyledon against an aphid-infested squash cotyledon from the colony and allowing the aphids to transfer. After transfer, the colony leaf is removed. Forty-eight hours later, the infested leaves are sprayed to wetting with formulations containing graded amounts of the insecticide using a DeVilbiss atomizer at 10 psi held at 12-15 inches from the plant. Controls consist of two infested, unsprayed squash plants and two infested plants sprayed to wetting with a formulation containing 100 ppm malathion as a reference standard. The mortality is estimated 24 hours after spraying by observation using a 10 power dissecting microscope. The same rating scale is used as before.

Squash Bug Adults = assay: Field trial, contact poison test; assay type: in vivo; parameters: key: 0-9 rating: 0 = 0-10% mortality, 9 = 91-100% mortality
Source text: (§1) Infested plants are placed in 6 oz. prescription bottles filled with water to keep them from wilting. Cellucotton is wrapped around the plant stem and squeezed into the bottle neck to prevent the insects from drowning.
(§2) A DeVilbiss Special Atomizer (5004) is used at 10 psi to spray the test plant with different concentrations of compounds. The atomizer is held at arm's length to prevent blowing the insects off the host plant. After treating, the bottles are placed on a table covered with brown wrapping paper to catch the dead insects as they drop from the plant. The plants are spaced so the leaves or plants are not touching one another.
(§3) The results are read at 24, 48, and 72 hours when applicable. The rating scale is 0 to 9 where 0 = 0-10 percent and 9 = 91-100 percent mortality.
(§4) Using the above methods, field trials were carried out against species of 5 orders of insects. The results, which are summarized in the following tables, give the average mortality for the particular insect with a given benzimidazole for each concentration employed. […] These tables contain all results obtained during the summer trials.

[3] = tested on: Tarnished Plant Bug Adults; assay: Field trial, stomach poison test; assay type: in vivo; parameters: key: mortality rating on a 0 to 9 scale
Method: (§5) Leaves from the infested plant are treated with different concentrations of the test compounds, either by spraying with a DeVilbiss Special Atomizer (5004) at 10 psi or by dipping the leaves in solutions containing the compound. The leaves are then allowed to air dry.
(§6) After the leaves have dryed, they are placed in plastic petri dishes (100 × 25 mm), then the insects are counted out into each dish, five or ten insects per dish depending on the number of insects available. There are one or two replicates and usually two or three rates with each compound. Mortality results are taken at 24, 48 and 72 hours. The rating scale is 0 to 9.
as §4

[4] = tested on: Unidentified Green Leafhopper; assay: Field trial, stomach poison test; assay type: in vivo; parameters: key: mortality rating on a 0 to 9 scale
Method: as §5, §6, §4

[5] = tested on: Southern Corn Rootworm Adults; assay: Field trial, contact poison test; assay type: in vivo
Source text: as §1, §2, §3, §4

Yellow Mealworm Larvae = assay: Field trial, topical application; assay type: in vivo; parameters: key: 0 = 0-10% mortality, 9 = 91-100% mortality (0-9 scale)
Method: as §3
In a variation of the above test, 1 microliter of a test solution containing a predetermined number of micrograms of benzimidazole was applied directly to larvae or adult insects.
as §4

Meadow Spittlebug = assay: Field trial, stomach poison test; assay type: in vivo
Method: as §5, §6, §4

[6] = tested on: Southern Corn Rootworm Adults; assay: Field trial, stomach poison test; assay type: in vivo; parameters: key: mortality rating on a 0 to 9 scale
Method: as §5, §6, §4

CC(COc1ccc(C(C)(C)C)cc1)OS(=O)OCCCl (stereo not drawn) [Aramite, reference compound]
mortality rating (Two-spotted Spider Mite; 50 ppm): 7-9

Clc1ccc(C(c2ccc(Cl)cc2)C(Cl)(Cl)Cl)cc1 [DDT, reference compound]
mortality rating (House Fly [1]; 50 ppm): 6-8

CCOC(=O)n1c(C(F)(F)F)nc2c([N+](=O)[O-])cc(C(F)(F)F)cc21 [G, ethyl 2,6-bis(trifluoromethyl)-4-nitro-1-benzimidazolecarboxylate]
mortality rating (Oriental Cockroach; 1000 ppm): 5.5

ClC1=C(Cl)C2(Cl)C3C(Cl)C=CC3C1(Cl)C2(Cl)Cl (stereo not drawn) [Heptachlor, reference compound]
mortality rating (Oriental Cockroach; 1000 ppm): 8-9

O=[N+]([O-])c1cc(C(F)F)cc2nc(C(F)(F)F)[nH]c12 [M, 2-trifluoromethyl-4-nitro-6-difluoromethylbenzimidazole]
mortality rating (Boll Weevil; 50 ppm): 1.5
mortality rating (Boll Weevil; 250 ppm): 8.5
mortality rating (Boll Weevil; 500 ppm): 8.5
mortality rating (Boll Weevil; 1000 ppm): 7.5
mortality rating (Oriental Cockroach; 500 ppm): 1.5
mortality rating (House Fly [1]; 10 ppm): 8.5
mortality rating (Southern Armyworm): .5
mortality rating (Milkweed Bug; 50 ppm): .5
mortality rating (Milkweed Bug; 100 ppm): 3.5
mortality rating (Two-spotted Spider Mite; 100 ppm): 6.5
mortality rating (Two-spotted Spider Mite; 250 ppm): 8.5
mortality rating (Mexican Bean Beetle; 50 ppm): 1.5
mortality rating (Mexican Bean Beetle; 100 ppm): 5.5
mortality rating (Mexican Bean Beetle; 500 ppm): 7.5
mortality rating (House Fly [2]; 100 ppm): 5.5

CCOC(=O)CC(SP(=S)(OC)OC)C(=O)OCC (stereo not drawn) [Malathion, reference compound]
mortality rating (Boll Weevil; 500 ppm): 7-8
mortality rating (Milkweed Bug; 500 ppm): 7-8
mortality rating (Mexican Bean Beetle; 500 ppm): 7- 8
mortality rating (House Fly [2]; 500 ppm): 6-7

O=C(Oc1ccc([N+](=O)[O-])cc1)n1c(C(F)(F)F)nc2c([N+](=O)[O-])cc(C(F)(F)F)cc21 [N, p-nitrophenyl-4-nitro-2,6-bis(trifluoromethyl)-1-benzimidazolecarboxylate]
mortality rating (Boll Weevil; 10 ppm): 1.5
mortality rating (Boll Weevil; 25 ppm): 3.5
mortality rating (Melon Aphid): 7.5
mortality rating (Oriental Cockroach; 500 ppm): 4.5
mortality rating (Oriental Cockroach; 1000 ppm): 5.5
average mortality rating (Squash Bug Adults; 125 ppm): 1
average mortality rating (Squash Bug Adults; 250 ppm): 6
average mortality rating (Squash Bug Adults; 500 ppm): 5
average mortality rating (Squash Bug Adults; 750 ppm): 8
average mortality rating ([3]; 10 ppm): 3
average mortality rating ([3]; 25 ppm): 3
average mortality rating ([3]; 50 ppm): 3
average mortality rating ([4]; 10 ppm): 0 (0-10 percent)
average mortality rating ([4]; 25 ppm): 1
average mortality rating ([4]; 50 ppm): 3
average mortality rating ([5]; 25 ppm): 0 (0-10 percent)
average mortality rating ([5]; 50 ppm): 5
average mortality rating ([5]; 100 ppm): 3
average mortality rating (Yellow Mealworm Larvae; 0.03 μg/μl): 1
average mortality rating (Yellow Mealworm Larvae; 0.07 μg/μl): 3
average mortality rating (Yellow Mealworm Larvae; 0.15 μg/μl): 7
mortality rating (Two-spotted Spider Mite; 1 ppm): 2.5
mortality rating (Two-spotted Spider Mite; 5 ppm): 1.5
mortality rating (Two-spotted Spider Mite; 500 ppm): 8.5
average mortality rating (Meadow Spittlebug; 10 ppm): 1
average mortality rating (Meadow Spittlebug; 25 ppm): 1
average mortality rating (Meadow Spittlebug; 50 ppm): 0 (0-10 percent)

mixture of 7-nitro-1-piperidinothionocarbonyl-2,5-bis(trifluoromethyl)benzimidazole and 4-nitro-1-piperidinothionocarbonyl-2,6-bis(trifluoromethyl)benzimidazole
average mortality rating ([6]; 25 ppm): 1
average mortality rating ([6]; 50 ppm): 7
average mortality rating ([6]; 100 ppm): 3
average mortality rating ([5]; 25 ppm): 0 (0-10 percent)
average mortality rating ([5]; 50 ppm): 9 (91-100 percent mortality)
average mortality rating ([5]; 100 ppm): 9 (91-100 percent mortality)
average mortality rating (Yellow Mealworm Larvae; 0.03 μg/μl): 3
average mortality rating (Yellow Mealworm Larvae; 0.07 μg/μl): 3
average mortality rating (Yellow Mealworm Larvae; 0.15 μg/μl): 3

mixture of N-ethyl-4-nitro-2,6-bis(trifluoromethyl)thio-1-benzimidazolecarboxanilide and N-ethyl-nitro-2,5-bis(trifluoromethyl)thio-1-benzimidazolecarboxanilide
mortality rating (Boll Weevil; 10 ppm): 0 (0-10)
mortality rating (Boll Weevil; 25 ppm): 6.5
mortality rating (Boll Weevil; 50 ppm): 7.5
mortality rating (Boll Weevil; 100 ppm): 8 (81-90)
mortality rating (Boll Weevil; 250 ppm): 8.5
mortality rating (Boll Weevil; 500 ppm): 9 (91-100)
mortality rating (Boll Weevil; 1000 ppm): 9 (91-100)
mortality rating (Oriental Cockroach; 1000 ppm): 0 (0-10)
mortality rating (House Fly [1]; 10 ppm): 6.5
mortality rating (House Fly [1]; 25 ppm): 8.5
mortality rating (House Fly [1]; 50 ppm): 8 (81-90)
mortality rating (House Fly [1]; 100 ppm): 8 (81-90)
mortality rating (House Fly [1]; 250 ppm): 9 (91-100)
mortality rating (House Fly [1]; 500 ppm): 9 (91-100)
mortality rating (House Fly [1]; 1000 ppm): 7 (71-80)
mortality rating (Milkweed Bug; 1000 ppm): 1 (11-20)
mortality rating (Two-spotted Spider Mite; 1000 ppm): 5 (51-60)
mortality rating (Mexican Bean Beetle; 10 ppm): 1.5
mortality rating (Mexican Bean Beetle; 25 ppm): 6 (61-70)
mortality rating (Mexican Bean Beetle; 50 ppm): 5.5
mortality rating (Mexican Bean Beetle; 100 ppm): 6.5
mortality rating (Mexican Bean Beetle; 250 ppm): 9 (91-100)
mortality rating (Mexican Bean Beetle; 500 ppm): 9 (91-100)
mortality rating (Mexican Bean Beetle; 1000 ppm): 9 (91-100)
mortality rating (House Fly [2]; 1000 ppm): 1 (11-20)
